Values joined by “and” are separate entries in the source; they are usually repeats but may differ in a detail not shown here. Equal entries are not always repeated. Inconclusive results and toxic doses are left out.
System: BDF1 mice, intracerebral L1210 leukemia, survival T/C
Assay: NCI In Vivo Anticancer Drug Screen. Data for tumor model L1210 Leukemia (intracerebral) in B6D2F1 (BDF1) mice
Conditions: higher = longer survival
Procedure, shortened: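 Readout is the T/C ratio: survival of compound-treated animals over that of vehicle-treated controls, in mice bearing transplantable tumour.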

Question: With `CC(CN1CC(=O)NC(=O)C1)N1CC(=O)NC(=O)C1` (stereo not given) as the compound, how does the T/C (endpoint: mean survival time, dose: 1.56 mg/kg/injection, schedule: Q03HX024 (ip), vehicle: steriod suspending solution) read?
Answer: The T/C was 108 % of control and 118 % of control.

Question: And the T/C (endpoint: mean survival time, dose: 3.12 mg/kg/injection, schedule: Q03HX024 (ip), vehicle: steriod suspending solution)?
Answer: Its T/C is 162 % of control.

Question: And the T/C (endpoint: mean survival time, dose: 12.5 mg/kg/injection, schedule: Q01DX009 (ip), vehicle: steriod suspending solution)?
Answer: The T/C was 124 % of control.

Question: And the T/C (endpoint: mean survival time, dose: 25.0 mg/kg/injection, schedule: Q03HX024 (ip), vehicle: steriod suspending solution)?
Answer: Its T/C is 180 % of control.

Question: What about the T/C (endpoint: mean survival time, dose: 50.0 mg/kg/injection, schedule: Q04DX003 (ip), vehicle: steriod suspending solution) of the same compound?
Answer: The T/C was 122 % of control.

Question: And the T/C (endpoint: mean survival time, dose: 100.0 mg/kg/injection, schedule: Q01DX009 (ip), vehicle: steriod suspending solution)?
Answer: Its T/C is 97 % of control.

Question: What about the T/C (endpoint: mean survival time, dose: 108.0 mg/kg/injection, schedule: Q04DX003 (ip), vehicle: other) of the same compound?
Answer: The T/C was 104 % of control and 122 % of control.

Question: What about the T/C (endpoint: mean survival time, dose: 108.0 mg/kg/injection, schedule: Q04DX003 (ip), vehicle: steriod suspending solution) of the same compound?
Answer: Its T/C is 108 % of control.

Question: What about the T/C (endpoint: mean survival time, dose: 180.0 mg/kg/injection, schedule: Q04DX003 (ip), vehicle: other) of the same compound?
Answer: The T/C was 104 % of control and 118 % of control.

Question: What about the T/C (endpoint: mean survival time, dose: 180.0 mg/kg/injection, schedule: Q04DX003 (ip), vehicle: steriod suspending solution) of the same compound?
Answer: The T/C was 108 % of control and 123 % of control.

Question: What about the T/C (endpoint: mean survival time, dose: 200.0 mg/kg/injection, schedule: Q01DX001 (ip), vehicle: steriod suspending solution) of the same compound?
Answer: Its T/C is 111 % of control.

Question: And the T/C (endpoint: mean survival time, dose: 400.0 mg/kg/injection, schedule: Q01DX001 (ip), vehicle: steriod suspending solution)?
Answer: Its T/C is 110 % of control.

Question: What about the T/C (endpoint: mean survival time, dose: 500.0 mg/kg/injection, schedule: Q04DX003 (ip), vehicle: other) of the same compound?
Answer: Its T/C is 107 % of control and 117 % of control.

Question: And the T/C (endpoint: mean survival time, dose: 500.0 mg/kg/injection, schedule: Q04DX003 (ip), vehicle: steriod suspending solution)?
Answer: The T/C was 111 % of control and 122 % of control.

Question: What about the T/C (endpoint: mean survival time, dose: 800.0 mg/kg/injection, schedule: Q04DX003 (ip), vehicle: steriod suspending solution) of the same compound?
Answer: Its T/C is 115 % of control and 86 % of control (2×).

Question: And the T/C (endpoint: mean survival time, dose: 833.0 mg/kg/injection, schedule: Q04DX003 (ip), vehicle: Klucel (hydroxypropylcellulose) (HPC))?
Answer: The T/C was 103 % of control.

Question: And the T/C (endpoint: median survival time, dose: 16.0 mg/kg/injection, schedule: Q01DX009 (ip), vehicle: Klucel (hydroxypropylcellulose) (HPC))?
Answer: The T/C was 116 % of control.

Question: And the T/C (endpoint: median survival time, dose: 64.0 mg/kg/injection, schedule: Q01DX009 (ip), vehicle: Klucel (hydroxypropylcellulose) (HPC))?
Answer: Its T/C is 114 % of control.

Question: What about the T/C (endpoint: median survival time, dose: 108.0 mg/kg/injection, schedule: Q04DX003 (ip), vehicle: Klucel (hydroxypropylcellulose) (HPC)) of the same compound?
Answer: The T/C was 118 % of control.

Question: And the T/C (endpoint: median survival time, dose: 128.0 mg/kg/injection, schedule: Q01DX009 (ip), vehicle: Klucel (hydroxypropylcellulose) (HPC))?
Answer: Its T/C is 109 % of control and 123 % of control and 95 % of control.

Question: What does the source list for `COS(C)(=O)=O`?
Answer: T/C (endpoint: median survival time, dose: 16.0 mg/kg/injection, schedule: Q01DX005 (ip), vehicle: saline): 104 % of control; T/C (endpoint: median survival time, dose: 32.0 mg/kg/injection, schedule: Q01DX005 (ip), vehicle: saline): 99 % of control; T/C (endpoint: median survival time, dose: 64.0 mg/kg/injection, schedule: Q01DX005 (ip), vehicle: saline): 99 % of control; T/C (endpoint: median survival time, dose: 128.0 mg/kg/injection, schedule: Q01DX005 (ip), vehicle: saline): 101 % of control

Question: Which results are given for `O=NN(CCF)C(=O)NC1CCC(NC(=O)N(CCF)N=O)CC1` (stereo not given)?
Answer: T/C (endpoint: mean survival time, dose: 10.0 mg/kg/injection, schedule: Q01DX001 (ip), vehicle: other): 110 % of control; T/C (endpoint: mean survival time, dose: 25.0 mg/kg/injection, schedule: Q01DX001 (ip), vehicle: other): 120 % of control; T/C (endpoint: mean survival time, dose: 30.0 mg/kg/injection, schedule: Q01DX001 (ip), vehicle: other): 155 % of control; T/C (endpoint: mean survival time, dose: 40.0 mg/kg/injection, schedule: Q01DX001 (ip), vehicle: other): 193 % of control; T/C (endpoint: mean survival time, dose: 50.0 mg/kg/injection, schedule: Q01DX001 (ip), vehicle: other): 224 % of control; T/C (endpoint: mean survival time, dose: 60.0 mg/kg/injection, schedule: Q01DX001 (ip), vehicle: other): 202 % of control; T/C (endpoint: mean survival time, dose: 80.0 mg/kg/injection, schedule: Q01DX001 (ip), vehicle: other): 293 % of control and 329 % of control; T/C (endpoint: mean survival time, dose: 110.0 mg/kg/injection, schedule: Q01DX001 (ip), vehicle: other): 294 % of control; T/C (endpoint: mean survival time, dose: 120.0 mg/kg/injection, schedule: Q01DX001 (ip), vehicle: other): 319 % of control and 334 % of control; T/C (endpoint: mean survival time, dose: 180.0 mg/kg/injection, schedule: Q01DX001 (ip), vehicle: other): 277 % of control; T/C (endpoint: mean survival time, dose: 187.0 mg/kg/injection, schedule: Q01DX001 (ip), vehicle: other): 170 % of control; T/C (endpoint: mean survival time, dose: 240.0 mg/kg/injection, schedule: Q01DX001 (ip), vehicle: other): 262 % of control

Question: With `CN(N=O)C(=O)NCCCNC(=O)N(C)N=O` as the compound, how does the T/C (endpoint: mean survival time, dose: 150.0 mg/kg/injection, schedule: Q01DX001 (ip), vehicle: carboxymethylcellulose (CMC)) read?
Answer: The T/C was 108 % of control.

Question: And the T/C (endpoint: mean survival time, dose: 300.0 mg/kg/injection, schedule: Q01DX001 (ip), vehicle: carboxymethylcellulose (CMC))?
Answer: The T/C was 119 % of control.

Question: How did the T/C (endpoint: mean survival time, dose: 100.0 mg/kg/injection, schedule: Q01DX009 (ip), vehicle: water) turn out when `O=C(NO)c1ccncc1` was run?
Answer: The T/C was 91 % of control.

Question: What about the T/C (endpoint: mean survival time, dose: 200.0 mg/kg/injection, schedule: Q01DX009 (ip), vehicle: water) of the same compound?
Answer: Its T/C is 92 % of control.

Question: And the T/C (endpoint: mean survival time, dose: 400.0 mg/kg/injection, schedule: Q01DX009 (ip), vehicle: water)?
Answer: Its T/C is 86 % of control.

Question: What about the T/C (endpoint: mean survival time, dose: 600.0 mg/kg/injection, schedule: Q01DX009 (ip), vehicle: water) of the same compound?
Answer: Its T/C is 89 % of control.

Question: How did the T/C (endpoint: mean survival time, dose: 8.0 mg/kg/injection, schedule: Q01DX001 (ip), vehicle: carboxymethylcellulose (CMC)) turn out when `O=NN(CCCl)C(=O)Nc1cccc(C(=O)O)c1` was run?
Answer: Its T/C is 95 % of control.

Question: And the T/C (endpoint: mean survival time, dose: 12.0 mg/kg/injection, schedule: Q01DX001 (ip), vehicle: carboxymethylcellulose (CMC))?
Answer: Its T/C is 108 % of control.

Question: And the T/C (endpoint: mean survival time, dose: 18.0 mg/kg/injection, schedule: Q01DX001 (ip), vehicle: carboxymethylcellulose (CMC))?
Answer: The T/C was 106 % of control.

Question: `C[n+]1ccc(Nc2ccc(NC(=O)c3ccc(Nc4cc[n+](C)c5ccc(N)cc45)cc3)cc2)cc1` was tested. Which T/C (endpoint: mean survival time, dose: 0.5 mg/kg/injection, schedule: Q01DX009 (ip), vehicle: Klucel (hydroxypropylcellulose) (HPC)) did it give?
Answer: The T/C was 93 % of control.

Question: And the T/C (endpoint: mean survival time, dose: 1.0 mg/kg/injection, schedule: Q01DX009 (ip), vehicle: Klucel (hydroxypropylcellulose) (HPC))?
Answer: Its T/C is 106 % of control.

Question: What about the T/C (endpoint: mean survival time, dose: 2.0 mg/kg/injection, schedule: Q01DX009 (ip), vehicle: Klucel (hydroxypropylcellulose) (HPC)) of the same compound?
Answer: The T/C was 103 % of control.

Question: And the T/C (endpoint: mean survival time, dose: 4.0 mg/kg/injection, schedule: Q01DX009 (ip), vehicle: Klucel (hydroxypropylcellulose) (HPC))?
Answer: Its T/C is 110 % of control.

Question: What about the T/C (endpoint: mean survival time, dose: 8.0 mg/kg/injection, schedule: Q01DX009 (ip), vehicle: Klucel (hydroxypropylcellulose) (HPC)) of the same compound?
Answer: The T/C was 122 % of control.

From PubChem BioAssay AID252 (DTP/NCI, 2004)
